Key:
Rattus norvegicus [1] = species on record: Rattus norvegicus; assay: Displacement of [125I]-triiodothyronine from thyroid hormone receptor in rat liver membrane homogenates assessed as relative T3 displacement incubated for 18 hrs by scintillation counting method relative to control; type: cell membranes
Rattus norvegicus [2] = species on record: Rattus norvegicus; assay: Displacement of [125I]-triiodothyronine from thyroid hormone receptor in rat liver membrane homogenates incubated for 18 hrs by scintillation counting method; type: cell membranes; design: concentration or dose not given beside the values; conditions: concentration not given here

Row | Structure (SMILES) | relative binding affinity (RBA) (Rattus norvegicus [1]) | inhibition (Rattus norvegicus [2])
1 | Oc1c(Br)cc(/C=C/c2ccccc2C(F)(F)F)cc1Br | 0.69 | 69%
2 | Brc1cc(Br)cc(Oc2cccc3oc4ccccc4c23)c1 | 0 | 0%
3 | Nc1ccc(CCc2cc(Br)c(O)c(Br)c2)cc1 | 0 | 0%
4 | Oc1c(Br)cc(CCc2c(Cl)cccc2Cl)cc1Br | 0.45 | 45%
5 | Cc1cc(C)cc(/C=C/c2cc(Br)c(O)c(Br)c2)c1 | 0.2 | 20%
6 | COc1ccccc1CCc1cc(Br)c(O)c(Br)c1 | 0 | 0%
7 | Cc1cc(C)cc(Nc2cccc3oc4ccccc4c23)c1 | 0 | 0%
8 | Brc1cc(Br)cc(-c2cccc3oc4ccccc4c23)c1 | 0 | 0%
9 | Oc1cccc(/C=C/c2cc(Br)c(O)c(Br)c2)c1 | 0.64 | 64%
10 | Oc1ccccc1/C=C/c1cc(Br)c(O)c(Br)c1 | 0.22 | 22%
11 | Oc1c(Br)cc(/C=C/c2ccccc2Br)cc1Br | 0.69 | 69%
12 | Cc1cc(/C=C/c2c(Cl)cccc2Cl)cc(C)c1O | 0.41 | 41%
13 | COc1ccccc1C(=O)Nc1cc(Br)cc(Br)c1 | 0.1 | 10%
14 | Oc1c(Br)cc(Oc2cccc3oc4ccccc4c23)cc1Br | 0.94 | 94%
15 | Nc1ccccc1/C=C/c1cc(Br)c(O)c(Br)c1 | 0.15 | 15%
16 | Nc1ccc(/C=C/c2cc(Br)c(N)c(Br)c2)cc1 | 0 | 0%
17 | Cc1cc(C)cc(-c2cccc3oc4ccccc4c23)c1 | 0.02 | 2%
18 | Cc1cccc(/C=C/c2cc(Br)c(O)c(Br)c2)c1 | 0.35 | 35%
19 | Clc1cccc(Cl)c1/C=C/c1cc(Br)cc(Br)c1 | 0.13 | 13%
20 | Oc1c(Br)cc(CCc2ccccc2C(F)(F)F)cc1Br | 0.08 | 8%
21 | Cc1cccc(C)c1CCc1cc(Br)c(O)c(Br)c1 | 0.12 | 12%
22 | Oc1cc(O)cc(/C=C/c2cc(Br)c(O)c(Br)c2)c1 | 0.66 | 66%

Row | Structure (SMILES) | relative binding affinity (RBA) (Rattus norvegicus [1]) | inhibition (Rattus norvegicus [2])
23 | Cc1cc(Oc2cccc3oc4ccccc4c23)cc(C)c1O | 0 | 0%
24 | Oc1c(Br)cc(CCc2c(F)cccc2F)cc1Br | 0.61 | 61%
25 | O=[N+]([O-])c1ccccc1COc1cc(Br)cc(Br)c1 | 0 | 0%
26 | Cc1cccc(C)c1/C=C/c1cc(Br)c(O)c(Br)c1 | 0.42 | 42%
27 | Oc1c(Br)cc(/C=C/c2c(Cl)cccc2Cl)cc1Br | 0.7 | 70%
28 | Nc1cccc(/C=C/c2cc(Br)c(O)c(Br)c2)c1 | 0 | 0%
29 | Oc1c(Br)cc(/C=C/c2c(Br)cccc2Br)cc1Br | 0.35 | 35%
30 | Nc1ccc(/C=C/c2cc(Br)c(O)c(Br)c2)cc1 | 0 | 0%
31 | Oc1c(Br)cc(/C=C/c2cccc(I)c2)cc1Br | 0.45 | 45%
32 | Cc1cc(CCc2c(Cl)cccc2Cl)cc(C)c1O | 0.4 | 40%
33 | O=[N+]([O-])c1ccccc1CCc1cc(Br)c(O)c(Br)c1 | 0.03 | 3%
34 | Cc1cc(C)cc(Oc2cccc3oc4ccccc4c23)c1 | 0 | 0%
35 | COc1cccc(CCc2cc(Br)c(O)c(Br)c2)c1 | 0.05 | 5%
36 | Oc1c(I)cc(/C=C/c2c(Cl)cccc2Cl)cc1I | 0.92 | 92%
37 | O=C(O)c1ccc2nc(-c3cc(Cl)cc(Cl)c3)oc2c1 | 0 | 0%
38 | O=C(O)c1ccc(C(=O)Nc2cc(Br)cc(Br)c2)cc1 | 0.13 | 13%
39 | Cc1cc(-c2cc(C)c(O)c(C)c2)cc(C)c1O | 0.11 | 11%
40 | Oc1ccc(/C=C/c2cc(Br)c(O)c(Br)c2)cc1 | 0.5 | 50%
41 | O=[N+]([O-])c1ccccc1/C=C/c1cc(Br)c(O)c(Br)c1 | 0.21 | 21%
42 | COc1cccc(/C=C/c2cc(Br)c(O)c(Br)c2)c1 | 0 | 0%
43 | Nc1cccc(CCc2cc(Br)c(O)c(Br)c2)c1 | 0 | 0%
44 | Cc1cccc(CCc2cc(Br)c(O)c(Br)c2)c1 | 0.04 | 4%

Row | Structure (SMILES) | relative binding affinity (RBA) (Rattus norvegicus [1]) | inhibition (Rattus norvegicus [2])
45 | COc1ccccc1NC(=O)Nc1cc(Br)c(O)c(Br)c1 | 0.14 | 14%
46 | Oc1c(Br)cc(NCc2ccccc2)cc1Br | 0.02 | 2%
47 | Oc1c(Br)cc(/C=C/c2ccccc2I)cc1Br | 0.55 | 55%
48 | COc1ccccc1/C=C/c1cc(Br)c(O)c(Br)c1 | 0.32 | 32%
49 | Cc1cc(-c2cccc3oc4ccccc4c23)cc(C)c1O | 0 | 0%
50 | COc1cccc(OC)c1/C=C/c1cc(Br)c(N)c(Br)c1 | 0.02 | 2%
51 | Oc1c(Br)cc(CCc2cccc(F)c2)cc1Br | 0.19 | 19%
52 | Cc1cc(-c2nc3c([N+](=O)[O-])cccc3o2)cc(C)c1O | 0.16 | 16%
53 | COc1cccc(/C=C/c2cc(Br)c(N)c(Br)c2)c1 | 0.01 | 1%
54 | O=[N+]([O-])c1ccccc1S(=O)(=O)Nc1cc(Cl)c(O)c(Cl)c1 | 0.07 | 7%
55 | Clc1cccc(Cl)c1COc1cc(Br)cc(Br)c1 | 0.04 | 4%
56 | Cc1ccccc1/C=C/c1cc(Br)c(O)c(Br)c1 | 0.44 | 44%
57 | Oc1c(Br)cc(/C=C/c2ccc(F)cc2)cc1Br | 0.4 | 40%
58 | Oc1c(Br)cc(-c2nc3cccc(Cl)c3o2)cc1Br | 0.62 | 62%
59 | Nc1cccc(/C=C/c2cc(Br)c(N)c(Br)c2)c1 | 0.03 | 3%
60 | Oc1c(I)cc(-c2nc3cccc(Cl)c3o2)cc1I | 0.92 | 92%
61 | COc1ccc(/C=C/c2cc(Br)c(O)c(Br)c2)cc1 | 0.16 | 16%
62 | Oc1c(Br)cc(-c2cccc3oc4ccccc4c23)cc1Br | 0.36 | 36%
63 | COc1cccc(OC)c1CCc1cc(Br)c(O)c(Br)c1 | 0 | 0%
64 | COc1cccc(OC)c1/C=C/c1cc(Br)c(O)c(Br)c1 | 0 | 0%
